Legend:
human recombinant COX-2 = biological target: T1, human recombinant COX-2 (Homo sapiens, UniProt P35354); test: In vitro COX-2 inhibition, enzyme immunoassay; assay type: biochemical; details: for COX-2 S. I. (in vitro COX-2 selectivity index, COX-1/COX-2): ratio COX-1 IC50/COX-2 IC50
T1 sequence (P35354 18-604): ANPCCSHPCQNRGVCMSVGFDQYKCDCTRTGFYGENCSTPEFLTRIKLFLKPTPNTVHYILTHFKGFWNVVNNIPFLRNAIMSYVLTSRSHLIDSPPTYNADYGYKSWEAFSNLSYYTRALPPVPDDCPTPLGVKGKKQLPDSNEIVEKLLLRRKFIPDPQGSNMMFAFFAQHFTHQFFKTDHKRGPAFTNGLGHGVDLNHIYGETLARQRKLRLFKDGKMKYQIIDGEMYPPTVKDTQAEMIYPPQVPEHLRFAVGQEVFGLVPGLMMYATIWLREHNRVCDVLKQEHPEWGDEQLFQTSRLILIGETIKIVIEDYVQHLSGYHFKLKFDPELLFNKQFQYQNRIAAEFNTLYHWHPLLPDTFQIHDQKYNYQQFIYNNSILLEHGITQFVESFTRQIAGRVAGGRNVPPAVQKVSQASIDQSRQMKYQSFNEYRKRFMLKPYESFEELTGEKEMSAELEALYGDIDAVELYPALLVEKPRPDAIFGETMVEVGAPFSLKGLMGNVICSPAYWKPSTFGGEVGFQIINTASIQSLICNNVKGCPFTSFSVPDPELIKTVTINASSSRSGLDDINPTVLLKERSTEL

ovine COX-1 = biological target: T2, ovine COX-1 (Ovis aries, UniProt P05979); test: In vitro COX-1 inhibition, enzyme immunoassay; assay type: biochemical
T2 sequence (P05979 25-600): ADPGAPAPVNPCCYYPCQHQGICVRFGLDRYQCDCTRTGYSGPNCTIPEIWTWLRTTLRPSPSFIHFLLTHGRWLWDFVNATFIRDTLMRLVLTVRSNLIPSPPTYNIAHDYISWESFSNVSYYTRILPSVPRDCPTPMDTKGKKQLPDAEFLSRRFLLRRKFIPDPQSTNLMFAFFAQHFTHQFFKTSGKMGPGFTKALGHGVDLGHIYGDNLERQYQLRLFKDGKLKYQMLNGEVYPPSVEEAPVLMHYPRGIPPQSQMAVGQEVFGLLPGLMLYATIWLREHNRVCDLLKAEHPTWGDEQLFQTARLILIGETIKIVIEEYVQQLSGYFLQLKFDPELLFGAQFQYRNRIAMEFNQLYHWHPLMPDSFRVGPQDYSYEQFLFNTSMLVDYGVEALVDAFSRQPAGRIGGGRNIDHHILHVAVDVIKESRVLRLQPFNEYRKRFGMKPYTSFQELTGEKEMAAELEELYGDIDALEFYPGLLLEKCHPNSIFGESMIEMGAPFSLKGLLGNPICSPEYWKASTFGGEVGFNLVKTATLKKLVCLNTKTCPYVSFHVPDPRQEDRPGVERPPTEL

| Compound | IC50 (human recombinant COX-2) [µM] | COX-2 S. I. (in vitro COX-2 selectivity index, COX-1/COX-2) (human recombinant COX-2) | IC50 (ovine COX-1) [µM] |
| --- | --- | --- | --- |
| CCCCCCCCCCCC1=C(O)C(=O)C=C(NC)C1=O [Compound 2, 2-Hydroxy-5-(methylamino)-3-undecylcyclohexa-2,5-diene-1,4-dione] | 3.1 | 2.11 | 6.54 |
| CCCCCCCCCCCC1=C(O)C(=N/CC)/C=C(O)C/1=N/CC [Compound 6, (3E, 6E)-3,6-bis(Ethylimino)-2-undecylcyclohexa-1,4-diene-1,4-diol] | 2.15 | 3.18 | 6.85 |
| CCCCCCCCCCCC1=C(O)C(=O)C=C(NCCN(C)C)C1=O [Compound 3, 5-(2-(Dimethylamino)ethylamino)-2-hydroxy-3-undecylcyclohexa-2,5-diene-1,4-dione] | 1.65 | 2.17 | 3.58 |
| CCCCCCCCCCCC1=C(OC(C)=O)C(=O)C=C(OC(C)=O)C1=O [Compound 8, 3,6-Dioxo-2-undecylcyclohexa-1,4-diene-1,4-diyl diacetate] | 1.23 | 1.83 | 2.25 |
| CCCCCCCCCCCC1=C(O)C(=N/C)/C=C(O)C/1=N/C [Compound 5, (3E, 6E)-3,6-bis(Methylimino)-2-undecylcyclohexa-1,4-diene-1,4-diol] | 2.56 | 2.98 | 7.65 |
| CCCCCCCCCCCC1=C(O)C(=O)C=C(O)C1=O [Compound 1, 2,5-dihydroxy-3-undecyl-1,4-benzoquinone] | 2.98 | 2.15 | 6.42 |
| CCCCCCCCCCCc1c2oc3cccnc3nc-2cc(O)c1=O [Compound 7, 8-hydroxy-6-undecyl-7H-benzo[b]pyrido[2,3-e][1,4]oxazin-7-one] | 1.56 | 2.04 | 3.19 |
